Legend:
H1299 = test: MTT assay in H1299 cells; type: cell-based
Description: H1299 is a non-small cell lung cancer cell line with telomerase activity. The cell extract of H1299 cell lines can be used for selecting the telomerase activity inhibitors in vitro and the telomerase activity-inhibited substances in vivo. H1299 cell line was incubated with RPMI 1640 medium supplemented with 10% of fetal bovine serum (FBS). A total of 2×10^3 […] cells were seeded in the 96-well cell culture plate, and incubated with DMEM (GIBCO®)/glucose mixture and Medium 199 (GIBCO®)/10% FBS/1 mM sodium pyruvate (GIBCO®)/4 mM L-glutamine (GIBCO®) mixture at a ratio of 4:1 at 37° C. for 24 hours. […] After 48 hours of drug treatment, the cultured medium were collected for performing the analysis of SEAP activity. The cells were washed with 1×PBS once immediately, and the MTT assay was performed to compare the compounds with the relative toxicity or the influence to the proliferation and activity. Mitochondria is the place for cellular respiration, and there are many reductive reactions catalyzed by dehydrogenases. MTT is a water-soluble yellow compound, and the […] will be formed after reduction. This crystal can be dissolved in the organic solvent, and has high absorbance at the wavelength of 570 nm. The higher cellular activity or more cell numbers, the more generated crystal violets. Therefore, the cellular activity and cell number can be obtained by the MTT assay. MTT solution was prepared by dissolving MTT powder in PBS solution to achieve 5 mg/ml, filtrated and stored at 4° C. Lysis buffer contained 20% (w/v) of SDS in 50% of N,N-dimethylformamide (DMF, Riedel-deHaën). After the cells were incubated in the 96-well culture plate, the original medium was discarded, 100 μl of the fresh serum-free medium per well and 25 μl of MTT solution per well were added in respectively, and the cells were further incubated in the CO2 incubator at 37° C. for 4 hours. Then, 100 μl of lysis buffer per well was added in and incubated overnight in the CO2 incubator at 37° C. The absorbance at 570 nm was determined by the ELISA reader. The selection of telomerase inhibitors of the anthraquinone compounds provided in the present invention was performed by the […]-driven SEAP system. SEAP is the communication gene in this drug selection model. The SEAP inhibition was shown as follows. […] Subsequently, the linear slope of absorbance to the measuring time was calculated, and the variance of absorbance at 405 nm per minute was represented and compared with the SEAP-producing result of drug-untreated H1299 cells. In addition, the influence of the cell-treated drug solution to the cellular proliferation and the drug toxicity to the cells were considered, and the cellular growth was evaluated by the MTT assay. The drug-treated cells were analyzed by the SEAP assay and the data analysis of MTT assay at the same time. Both results were compared so as to delete the influence of cell number or the activity to SEAP, and the dose-dependent phenomenon could be anticipated in the range of drug concentration designed by the laboratory. […] Since the chemically-synthetic drugs have colors thereon, the SEAP value of drug-treatment without cells was also determined to be the background value which was deducted while treating with the drugs. The candidate drug for inhibiting telomerase on the hTERT gene expression level was evaluated and anticipated.

BJ1 = test: MTT assay in BJ1 cells; type: cell-based
Description: A total of 2×10^3 […] cells were seeded in the 96-well cell culture plate, and incubated with DMEM (GIBCO®)/glucose mixture and Medium 199 (GIBCO®)/10% FBS/1 mM sodium pyruvate (GIBCO®)/4 mM L-glutamine (GIBCO®) mixture at a ratio of 4:1 at 37° C. for 24 hours. […] After 48 hours of drug treatment, the cultured medium were collected for performing the analysis of SEAP activity. The cells were washed with 1×PBS once immediately, and the MTT assay was performed to compare the compounds with the relative toxicity or the influence to the proliferation and activity. Mitochondria is the place for cellular respiration, and there are many reductive reactions catalyzed by dehydrogenases. MTT is a water-soluble yellow compound, and the […] will be formed after reduction. This crystal can be dissolved in the organic solvent, and has high absorbance at the wavelength of 570 nm. The higher cellular activity or more cell numbers, the more generated crystal violets. Therefore, the cellular activity and cell number can be obtained by the MTT assay. MTT solution was prepared by dissolving MTT powder in PBS solution to achieve 5 mg/ml, filtrated and stored at 4° C. Lysis buffer contained 20% (w/v) of SDS in 50% of N,N-dimethylformamide (DMF, Riedel-deHaën). After the cells were incubated in the 96-well culture plate, the original medium was discarded, 100 μl of the fresh serum-free medium per well and 25 μl of MTT solution per well were added in respectively, and the cells were further incubated in the CO2 incubator at 37° C. for 4 hours. Then, 100 μl of lysis buffer per well was added in and incubated overnight in the CO2 incubator at 37° C. The absorbance at 570 nm was determined by the ELISA reader.

O=C1c2ccc(NC(=O)C3CCCC3)cc2C(=O)c2cc(NC(=O)C3CCCC3)ccc21 [Compound 33, 2,7-Bis(cyclopentanecarbonamido)anthraquinone]
viability (H1299; 1 µM): 91 ± 12%
viability (H1299; 10 µM): 77 ± 6%
viability (H1299; 100 µM): 42 ± 12%
viability (BJ1; 1 µM): 77 ± 1%
viability (BJ1; 10 µM): 68 ± 1%
viability (BJ1; 100 µM): 58 ± 1%

From patent US20090253709A1 (NATIONAL DEFENSE MEDICAL CENTER, priority 2008, published 2009)
